The results in this text go back to PubChem BioAssay AID1648 (Sanford-Burnham Center for Chemical Genomics, 2009).

Activity calls are given as the source filed them. The rule behind the calls is not given here.

In the experiment the target is Serine/threonine-protein kinase mTOR (Homo sapiens) (UniProt P42345). The experiment in a line: binders of mTOR FRB domain, biophysical, NMR (AID 1648). The settings on record: NMR binding to FRB domain, chemical shift.
Chain of Serine/threonine-protein kinase mTOR (Homo sapiens) (P42345 2015-2114): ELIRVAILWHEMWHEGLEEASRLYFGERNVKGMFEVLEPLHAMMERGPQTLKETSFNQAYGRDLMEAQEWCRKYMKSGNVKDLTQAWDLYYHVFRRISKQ
For the compound `Cn1ccnc1SCc1cc(=O)[nH]c2ccccc12`, the Kd is > 4 mM (inactive). With `COc1ccc2c(CC(=O)O)coc2c1` the figure was > 4 mM (inactive); with `CC(O)c1ccc(C(C)O)cc1` (configuration not stated), > 4 mM (inactive); with `O=C1c2ccccc2-c2ncnc3cccc1c23`, > 4 mM (inactive). With `CC(=O)O[C@H]1CC[C@@]2(C)C(=CCC3C2CC[C@@]2(C)C3CC[C@@H]2C(C)CCCC(C)C)C1` (some centres not stated), the Kd was > 4 mM (inactive). With `CCOC(=O)C1CCN(c2ncnc3nc[nH]c23)CC1` the figure was > 4 mM (inactive); with `CC(=O)NCC1OCCc2ccccc21` (configuration not stated), > 4 mM (inactive); with `O=C(O)c1cccc2c1OCCO2`, > 4 mM (inactive). With `Cc1ccc(CNc2ccc(O)cc2)cc1` the figure was > 4 mM (inactive); with `CN1CCN(S(=O)(=O)c2ccc(=O)[nH]c2)CC1`, > 4 mM (inactive). With `CCN(CC)S(=O)(=O)c1cccc2nsnc12` the figure was > 4 mM (inactive).

With `CCCNC(=O)CSc1ncccc1C(=O)O`, the Kd is > 4 mM (inactive).

`O=C(NN=C1CCCC1)c1ccncc1`: the Kd was > 4 mM (inactive). On to `Cc1cc(=O)oc2cc3c(cc12)OCCO3`, for which the Kd is > 4 mM (inactive). With `Cc1ccccc1CSc1nnc(C)n1N` the figure was > 4 mM (inactive); with `O=C(O)CCCCCCCCCCCCC1C=CCC1` (configuration not stated), > 4 mM (inactive). Consider `C=CCc1ccc(O)c(OC)c1`, for which the Kd is > 4 mM (inactive). With `CN(C)C(=O)CSc1nc2ccccc2c(=O)[nH]1` the figure was > 4 mM (inactive); with `CC(Sc1ncn[nH]1)C(=O)O` (configuration not stated), > 4 mM (inactive). With `O=C(O)CCC(=O)c1c[nH]c2ccccc12` the figure was > 4 mM (inactive); with `CC(=O)O[C@H]1C[C@@H](OC(C)=O)C(C)(C)C2C[C@@H](OC(C)=O)[C@]3(C)C([C@H](OC(C)=O)C[C@@]4(C)[C@H](c5ccoc5)OC(=O)[C@H]5O[C@]543)[C@]21C` (some centres not stated), > 4 mM (inactive).

With `Cc1ccc2cccc(OC(=O)N3CCCC3)c2n1`, the Kd is > 4 mM (inactive).

For `NC(=O)NC1C=CS(=O)(=O)C1` (configuration not stated), the Kd was > 4 mM (inactive). Regarding `Cc1nc2ccc(C(=O)O)cc2nc1C`, the Kd was > 4 mM (inactive). With `Cc1nn(CC(=O)Nc2ccccc2)c(=O)c2ccccc12`, the Kd is > 4 mM (inactive). With `Cn1c(=O)c2[nH]c(Nc3ccccc3)nc2n(C)c1=O` the figure was > 4 mM (inactive); with `COc1ccc(/C=C2\SC(N)=NC2=O)cc1`, > 4 mM (inactive). In the case of `O=c1ccc2nc3ccccc3c(=O)n2[nH]1`, the Kd was > 4 mM (inactive). With `CN1C(=O)c2ccc(N3CCCC3)cc2C1=O` the figure was > 4 mM (inactive); with `O=C1c2ccc(F)cc2C(=O)N1CO`, > 4 mM (inactive); with `COc1cc(C(=O)NCC2CCCO2)cc(OC)c1OC` (configuration not stated), > 4 mM (inactive). With `CC1(C)Cc2nc(N3CCOCC3)c(C#N)cc2CO1` the figure was > 4 mM (inactive); with `Nc1cccc(-c2cnco2)c1`, > 4 mM (inactive). As for `CC(=O)O[C@H]1C[C@@H](OC(C)=O)C(C)(C)C2C[C@@H](OC(C)=O)[C@]3(C)C(CC[C@@]4(C)[C@H](c5ccoc5)OC(=O)[C@H]5O[C@]543)[C@]21C` (some centres not stated), the Kd is > 4 mM (inactive). `O=S(=O)(c1cccc(Cl)c1)N1CCCC1`: the Kd was > 4 mM (inactive). With `CC1(C)Cc2cccc(C(=O)O)c2O1` the figure was > 4 mM (inactive); with `CC(C)Oc1ccc(NC(N)=O)cc1`, > 4 mM (inactive); with `COC(=O)C1[C@H]2C[C@H]3c4[nH]c5ccccc5c4CCN3C[C@@H]2CC[C@@H]1O` (some centres not stated), > 4 mM (inactive). With `CC1(C)C2CC(=O)[C@]3(C)C(CC[C@@]4(C)[C@H](c5ccoc5)OC(=O)C5OC543)[C@@]2(C)[C@@H](O)C[C@H]1O` (some centres not stated) the figure was > 4 mM (inactive); with `CC1(C)O[C@H]2CC(=O)OC[C@]23[C@H]2CC[C@@]4(C)[C@H](c5ccoc5)OC(=O)[C@H]5O[C@]54[C@]2(C)C(=O)C[C@@H]13`, > 4 mM (inactive). For the compound `Nc1ncnc(NCc2cccnc2)c1[N+](=O)[O-]`, the Kd is > 4 mM (inactive).

As for `OCc1cc(-c2cccs2)on1`, the Kd is > 4 mM (inactive). With `CC(=O)c1c(C)nc2ccccc2c1N` the figure was > 4 mM (inactive); with `Cc1cc(NC(=O)c2ccccc2C(=O)O)no1`, > 4 mM (inactive); with `CC(=O)c1cccc(NS(=O)(=O)N(C)C)c1`, > 4 mM (inactive).

Regarding `CCn1ccc(C(=O)Nc2nccs2)n1`, the Kd was > 4 mM (inactive). With `CCNC(=O)CC[C@H](N)C(=O)O` the figure was > 4 mM (inactive); with `Cc1n[nH]c(=S)[nH]c1=O`, > 4 mM (inactive).

As to `O=C(c1ccncc1)c1ccc(Br)cc1`, the Kd is > 4 mM (inactive).

Take `CN1CCN(CC(=O)N2CCc3ccccc32)CC1`: the Kd is > 4 mM (inactive). Regarding `CSc1nc2nc(C)cc(=O)n2[nH]1`, the Kd was > 4 mM (inactive). On to `CC(C)C(C)/C=C/C(C)[C@H]1CCC2C3=CCC4CC(=O)CC[C@]4(C)C3CC[C@@]21C` (some centres not stated), for which the Kd was > 4 mM (inactive). With `O=C1C2CCCCC2C(=O)N1Cc1cccnc1` (configuration not stated) the figure was > 4 mM (inactive); with `Cc1cc(=O)n2ccc(CN3CCOCC3)c(O)c2n1`, > 4 mM (inactive); with `COc1cc(C(C)=O)ccc1OC(=O)N1CCOCC1`, > 4 mM (inactive).

Regarding `CON(C)C(=O)Nc1ccc(Cl)cc1`, the Kd was > 4 mM (inactive). With `COc1ccc(C(O)c2nccn2C)cc1` (configuration not stated) the figure was > 4 mM (inactive); with `CC(=O)C1CCC2C3CCC4C[C@H](O)CCC4(C)C3C[C@H](O)C12C` (some centres not stated), > 4 mM (inactive); with `c1cc2c(cc1[C@H]1OC[C@H]3[C@@H]1CO[C@H]3c1ccc3c(c1)OCO3)OCO2`, > 4 mM (inactive).

Regarding `Cc1cc(C(=O)NCc2ccco2)cs1`, the Kd was > 4 mM (inactive). With `O=C(O)C1CC(=O)N(Cc2ccco2)C1` (configuration not stated) the figure was > 4 mM (inactive). With `Cc1cccc(OCc2nnc(N)s2)c1` the figure was > 4 mM (inactive). With `CC(=O)c1cccc(NC2=NCC(C)(C)S2)c1` the figure was > 4 mM (inactive). As to `O=C(O)c1ccc2nccnc2c1`, the Kd was > 4 mM (inactive). With `O=C1CNC(=O)N1c1cccc(Cl)c1` the figure was > 4 mM (inactive). With `O=c1[nH]cc(NCc2ccco2)c(=O)[nH]1` the figure was > 4 mM (inactive); with `Cc1ccc(-c2nc(N)n(C(=O)c3cccnc3)n2)cc1`, > 4 mM (inactive). With `COC(=O)CCSCC(=O)Nc1nccs1` the figure was > 4 mM (inactive); with `O=C(O)[C@H](O)[C@@](O)(Cc1ccc(O)cc1)C(=O)O`, > 4 mM (inactive); with `Nc1ccc2nsnc2c1`, > 4 mM (inactive). As for `C[C@@H]1CC[C@H]2[C@@H](C)C(=O)O[C@@H]3OC4(C)CC[C@@H]1[C@]32OO4`, the Kd is > 4 mM (inactive). Turning to `O=c1cnnc(NCc2ccc(F)cc2)[nH]1`, the Kd was > 4 mM (inactive).
